Data from patent US9295255B2, “Use of dithiine derivatives in crop protection and the protection of materials” (Bayer Intellectual Property GmbH, priority 2010, dated 2016).

How the values were obtained:
Alternaria solani = test: Alternaria test (tomato)/protective; assay type: in vivo; conditions: young tomato plants sprayed, 1500 ppm, protective; evaluation 7 days following inoculation; 0% = control, 100% = no infestation
Phytophthora infestans = assay type: in vivo; conditions: young tomato plants sprayed, 1500 ppm, protective; evaluation 7 days following inoculation; 0% = control, 100% = no infestation
Venturia inaequalis = test: Venturia test (apple)/protective; assay type: in vivo; conditions: young apple plants sprayed, 250 ppm, protective; evaluation 10 days following inoculation; 0% = control, 100% = no infestation
Text: An appropriate preparation of active compound is produced by mixing 1 part by weight of active compound with the stated amounts of solvent and emulsifier and diluting the concentrate with water to the desired concentration. To test for protective activity, young plants are sprayed with the preparation of active compound at the stated application rate. After the spray coating has dried on, the plants are inoculated with an aqueous conidia suspension of the causative organism of apple scab, Venturia inaequalis, and then spend 1 day in an incubation cabin at approximately 20° C. and 100% relative humidity. Subsequently the plants are placed in a greenhouse at approximately 21° C. and approximately 90% humidity. After 10 clays following inoculation, evaluation takes place. Here, 0% denotes an efficacy which corresponds to that of the control, whereas an efficacy of 100% means that no infestation is observed.

Plasmopara viticola = test: Plasmopara test (grapevine)/protective; assay type: in vivo; conditions: young grapevine plants sprayed, 250 ppm, protective; evaluation 6 days following inoculation; 0% = control, 100% = no infestation
Text: An appropriate preparation of active compound is produced by mixing 1 part by weight of active compound with the stated amounts of solvent and emulsifier and diluting the concentrate with water to the desired concentration. To test for protective activity, young plants are sprayed with the preparation of active compound at the stated application rate. After the spray coating has dried on, the plants are inoculated with an aqueous spore suspension of Plasmopara viticola and then spend 1 day in an incubation cabin at approximately 20° C. and 100% relative humidity. Subsequently the plants are placed for 4 days in a greenhouse at approximately 21° C. and approximately 90% humidity. The plants are then moistened and placed in an incubation cabin for 1 day. After 6 days following inoculation, evaluation takes place. Here, 0% denotes an efficacy which corresponds to that of the control, whereas an efficacy of 100% means that no infestation is observed.

[1] = log P determination by HPLC on reversed-phase column (EEC Directive 79/831 Annex V.A8); assay type: physicochemical; conditions: reversed-phase C18 HPLC column, reversed-phase C 18, 43° C., acidic range pH 2.7, 0.1% aqueous formic acid/acetonitrile
Procedure: The log P values reported in the preparation examples and tables above are determined in accordance with EEC Directive 79/831 Annex V.A8 by means of HPLC (High Performance Liquid Chromatography) on a reversed-phase column (C 18). Temperature: 43° C.
The determination with the LC-MS in the acidic range takes place at a pH of 2.7 using 0.1% aqueous formic acid and acetonitrile (containing 0.1% formic acid) as eluents: linear gradient from 10% acetonitrile to 95% acetonitrile.
Calibration takes place using unbranched alkan-2-ones (having 3 to 16 carbon atoms) of which the log P values are known (log P values determined on the basis of the retention times, by linear interpolation between two successive alkanones).

Botrytis cinerea = test: Botrytis test (bean)/protective; assay type: in vivo; conditions: young bean plants sprayed, 500 ppm, protective; size of infestation spots 2 days following inoculation; 0% = control, 100% = no infestation
Text: An appropriate preparation of active compound is produced by mixing 1 part by weight of active compound with the stated amounts of solvent and emulsifier and diluting the concentrate with water to the desired concentration. To test for protective activity, young plants are sprayed with the preparation of active compound at the stated application rate. After the spray coating has dried on, 2 small pieces of agar on which Botrytis cinerea is growing are placed on each leaf. The inoculated plants are placed in a darkened chamber at approximately 20° C. and 100% relative humidity. After 2 clays following inoculation, the size of the infestation spots on the leaves is evaluated. Here, 0% denotes an efficacy which corresponds to that of the control, whereas an efficacy of 100% means that no infestation is observed.

Row | Compound | Efficacy in % (Alternaria solani) | Efficacy in % (Phytophthora infestans) | Efficacy in % (Venturia inaequalis) | Efficacy in % (Plasmopara viticola) | chromatographic logP [1] | Efficacy in % (Botrytis cinerea)
1 | Cc1c(C)c(=O)c2sc(C#N)c(C#N)sc=2c1=O [Compound 43, 6,7-dimethyl-5,8-dioxo-5,8-dihydro-1,4-benzodithiine-2,3-dicarbonitrile] | 100% | – | – | – | – | –
2 | COc1c(Cl)c(=O)c2sc(C#N)c(C#N)sc=2c1=O [Compound 44, 6-chloro-7-methoxy-5,8-dioxo-5,8-dihydro-1,4-benzodithiine-2,3-dicarbonitrile] | 100% | – | – | – | – | –
3 | CC(C)(C)c1cc(=O)c2sc(C#N)c(C#N)sc=2c1=O [Compound 45, 6-tert-butyl-5,8-dioxo-5,8-dihydro-1,4-benzodithiine-2,3-dicarbonitrile] | – | 78% | – | – | – | –
4 | Cc1c(C)c(O)c2c(c1O)SC(C#N)=C(C#N)S2 [Compound 47, 5,8-dihydroxy-6,7-dimethyl-1,4-benzodithiine-2,3-dicarbonitrile] | 100% | 89% | 100% | 92% | 2.26 | 100%
5 | COc1c(O)c2c(c(O)c1Cl)SC(C#N)=C(C#N)S2 [Compound 48, 6-chloro-5,8-dihydroxy-7-methoxy-1,4-benzodithiine-2,3-dicarbonitrile] | 100% | 94% | 100% | 90% | 2.19 | 97%
6 | CC(C)(C)c1cc(O)c2c(c1O)SC(C#N)=C(C#N)S2 [Compound 49, 6-tert-butyl-5,8-dihydroxy-1,4-benzodithiine-2,3-dicarbonitrile] | 100% | 94% | 100% | 92% | 2.95 | 96%
